Reference: patent publication EP0429522B1, “PHOSPHOSUGAR-BASED ANTI-INFLAMMATORY AND/OR IMMUNOSUPPRESSIVE DRUGS” (THE AUSTRALIAN NATIONAL UNIVERSITY, priority 1988, dated 1990)

Experiments:
[1] = tested on: Delayed-Type Hypersensitivity (DTH); assay: Delayed-type hypersensitivity (DTH) footpad swelling after sheep red blood cell challenge; assay type: in vivo, C57Bl mice; details: 24 hours after challenge; 0.15mg i/p per injection, 7 injections at approx. 3½ hour intervals
Procedure: C57Bl mice were sensitised by i.v. injection 10⁵ of washed sheep red blood cells. 5 days later they were challenged in the right hind footpad with SRBC. Each mouse was given a 0.25ml injection i/p at the same time of either saline, mannose-6-phosphate or the 1,2,3,4-tetraacetate of mannose-6-phosphate and all injections were repeated a further 6 times at approx. 3½ hour intervals. The dose in each injection of mannose-6- phosphate was 0.15mg and of 1,2,3,4-tetra-O-acetyl derivative of mannose-6-phosphate was also 0.15mg. At 24 hours after challenge the DTH swelling was measured.

[2] = tested on: Adoptively Transferred EAE; assay: Inhibition of adoptively transferred EAE (clinical signs), phosphosugar delivered by subcutaneous mini-osmotic pumps; assay type: in vivo, Lewis rats; details: for Disease Severity (%Control): product of mean clinical score and mean length disease; for inhibition of EAE (result in words): summary of Tables I, III and IV
Procedure: In this Example, a number of phosphosugars and one phospho-polysaccharide were tested for their ability to inhibit development of EAE in rats. (All phosphosugars tested are commercially available and were obtained from Sigma Chemical Co., St. Louis, MO, U.S.A.). Experimental details are included in the footnotes to the Tables setting out the test results.
Thus, although 7/10 animals treated with mannose-6-phosphate developed some clinical signs of disease (Table III) the severity of these disease symptoms was extremely mild compared with untreated animals, i.e., <10% disease severity of controls when clinical scores and duration of disease are examined. In this sense, the mannose-6-phosphate data in Tables I and III are almost identical. […]
In these experiments, details of which were as in Table I, the number of cells transferred was 25x10⁶/rat, while the dose of compound administered was 10mg/rat delivered over a 7 day period by mini-osmotic pumps, commencing on day 3 after cell transfer.

EAE = assay: Histological analysis of spinal cord inflammatory lesions in EAE rats; assay type: in vivo; details: for No.Lesions: lower thoracic-upper lumbar spinal cord sections, treated as in Table I; for No.Lesions / Lesions/section: 9 days after cell transfer; for Lesions/section: spinal cord sections
Excerpt: Such data are consistent with the view that the sugars are inhibiting entry of leukocytes into the CNS.

[3] = tested on: Passive Adjuvant Arthritis; assay: Suppression of passive adjuvant arthritis (foot size); assay type: in vivo, (DA x Lew)Fl rats; details: 6mg/rat/day by miniosmotic pumps for 14 days
Procedure: (DA x Lew)Fl rats were immunized with M.butyricum in light mineral oil given in each foot. Ten days later spleens were removed and incubated as single cell suspension tissue culture medium in + 5µg/ml ConA for 75 hrs. Cells were harvested, washed and transferred i.v. at 65 x 10⁶ cells/rat into (DA x Lew)F recipients.
Treated rats were implanted on the day they received cells with miniosmotic pumps which delivered 6mg/rat/day of mannose-6- phosphate for 14 days. Control rats were sham operated. The results are shown in Table VII as % of pre-cell injection foot size. {Average for group; n=4 (mannose-6-phosphate); n=6 (control)}.

[4] = Table III, experimental details as in Table I
[5] = Table II, dose 10 mg over 7 days
[6] = Table II, dose 20 mg over 7 days
[7] = Table II, dose 40 mg over 7 days

“1,2,3,4-tetra-O-acetyl derivative of mannose-6-phosphate” was tested, and the “reduction of DTH swelling as compared with the saline controls” value [1] was 91.5%.

In the case of “6-phospho-mannose-α(1-3)-{mannose-α-(1-3)}₂-mannose-α-(1-2)-mannose [Pentasaccharide]”, the EAE/Total ([2]; Table VI, 25x10⁶ cells/rat, 10mg/rat over 7 days by mini-osmotic pumps from day 3) is reported as 1/5.

In the case of `OC[C@H]1OC(O)[C@@H](O)[C@@H](O)[C@@H]1O` (stereo partly drawn) [D-mannose, reference compound], the “Mean Clinical Score” value [2, 4] is reported as 2.9, the “Mean Day Onset” value [2, 4] is reported as 5.2 and the “Mean Length Disease” value [2, 4] is reported as 4.4 days. For the same compound, the “No.with EAE/Total” value [2, 4] was 5/5, the “Disease Severity (%Control)” value ([2]; Table III) was 84.5% and the “inhibition of EAE (result in words)” value [2] was “little or no effect on disease progression”.

In the case of `O=C(COP(=O)(O)O)[C@@H](O)[C@H](O)[C@H](O)COP(=O)(O)O` [Fructose-1,6-diphosphate, fructose-1,6-diphosphate], the “Mean Clinical Score” value [2, 4] is reported as 2.4, the “Mean Day Onset” value [2, 4] is reported as 5.4 and the “Mean Length Disease” value [2, 4] is reported as 3.4 days. The “No.with EAE/Total” value [2, 4] was 5/5, the “Disease Severity (%Control)” value ([2]; Table III) was 54.0% and the “inhibition of EAE (result in words)” value [2] was “partially inhibitory”.

In the case of `O=C(COP(=O)(O)O)[C@@H](O)[C@H](O)[C@H](O)CO` [Fructose-1-phosphate, fructose-1-phosphate], the “Mean Clinical Score” value [2, 4] is reported as 1.2, the “Mean Day Onset” value [2, 4] is reported as 5.5 and the “Mean Length Disease” value [2, 4] is reported as 1.6 days. The “No.with EAE/Total” value [2, 4] was 3/5, the “Disease Severity (%Control)” value ([2]; Table III) was 12.6% and the “inhibition of EAE (result in words)” value [2] was “as effective as mannose-6-phosphate at inhibiting disease”.

With `O=C(CO)[C@@H](O)[C@H](O)[C@H](O)COP(=O)(O)O` [Fructose-6-phosphate] the “Mean Clinical Score” value [2, 4] was 1.6, the “Mean Day Onset” value [2, 4] was 6.0 and the “Mean Length Disease” value [2, 4] was 2.4 days. For the same compound, the “No.with EAE/Total” value [2, 4] was 4/5, the “Disease Severity (%Control)” value ([2]; Table III) was 25.4% and the “inhibition of EAE (result in words)” value [2] was “comparatively effective inhibitor of EAE”.

With `O=P(O)(O)OC[C@H]1OC(O)[C@H](O)[C@@H](O)[C@H]1O` (some centres unmarked) [Galactose-6-phosphate, galactose-6-phosphate] the “Mean Clinical Score” value [2, 4] was 2.0, the “Mean Day Onset” value [2, 4] was 5.2 and the “Mean Length Disease” value [2, 4] was 3.0 days. For the same compound, the “No.with EAE/Total” value [2, 4] was 5/5, the “Disease Severity (%Control)” value ([2]; Table III) was 40.5% and the “inhibition of EAE (result in words)” value [2] was “partially inhibitory”.

In the case of `O=P(O)(O)OC[C@H]1OC(O)[C@H](O)[C@@H](O)[C@@H]1O` (some centres unmarked) [Glucose-6-phosphate, glucose-6-phosphate], the “Mean Clinical Score” value [2, 4] is reported as 2.0, the “Mean Day Onset” value [2, 4] is reported as 5.4 and the “Mean Length Disease” value [2, 4] is reported as 3.8 days. The “No.with EAE/Total” value [2, 4] was 5/5, the “Disease Severity (%Control)” value ([2]; Table III) was 50.3% and the “inhibition of EAE (result in words)” value [2] was “partially inhibitory”.

With `O=P(O)(O)OC[C@H]1OC(O)[C@@H](O)[C@@H](O)[C@@H]1O` (some centres unmarked) [Mannose-6-phosphate, mannose-6-phosphate] the “Mean Length Disease” value ([2]; Table I, 40 mg/rat over 7 days) was 0 days, the “Mean Day Onset” value ([2]; Table I, 40 mg/rat over 7 days, s.c. pumps from day 3) was 0 and the “Mean Clinical Score” value ([2]; Table I, 40 mg/rat over 7 days, score 0-5) was 0. The “No.with EAE/Total” value ([2]; Table I, 30 x 10⁶ ConA activated EAE effector cells, 40 mg/rat over 7 days, s.c. pumps from day 3) was 0/8, the “Mean Clinical Score” value [2, 5] was 1.8 and the “Mean Day Onset” value [2, 5] was 5.0. For the same compound, the “Mean Length Disease” value [2, 5] was 3.3, the “No.with EAE/Total” value [2, 5] was 4/4 and the “Disease Severity (%Control)” value ([2]; Table II, dose 10 mg over 7 days, listed as Mannose-6-Phosphate) was 37.7%. The “Disease Severity (%Control)” value ([2]; Table II, dose 10 mg over 7 days, listed as mannose-6-phosphate) was 37.7%, the “Mean Clinical Score” value [2, 6] was 1.5 and the “Mean Day Onset” value [2, 6] was 5.0. For the same compound, the “Mean Length Disease” value [2, 6] was 3.0, the “No.with EAE/Total” value [2, 6] was 4/4 and the “Disease Severity (%Control)” value [2, 6] was 28.6%. The “Mean Clinical Score” value [2, 7] was 0.3, the “Mean Day Onset” value [2, 7] was 5.0 and the “Mean Length Disease” value [2, 7] was 0.7. For the same compound, the “No.with EAE/Total” value [2, 7] was 1/3, the “Disease Severity (%Control)” value [2, 7] was 1.7% and the “Mean Clinical Score” value [2, 4] was 0.9. For the same compound, the “Mean Day Onset” value [2, 4] was 6.0, the “Mean Length Disease” value [2, 4] was 1.5 days and the “No.with EAE/Total” value [2, 4] was 7/10. The “Disease Severity (%Control)” value ([2]; Table III) was 8.9%, the “Disease Severity (%Control)” value ([2]; Table III, listed as mannose-6-phosphate) was < 10% and the “inhibition of EAE (result in words)” value [2] was “totally inhibited development of disease”. The “CNS lesions (result in words)” value (EAE; text summary of Table V) was “No lesions were detected”, the No.Lesions (EAE; treated rat 1) was 0 and the Lesions/section (EAE; treated rat 1) was 0. For the same compound, the No.Lesions (EAE; treated rat 2) was 0, the Lesions/section (EAE; treated rat 2) was 0 and the “% of pre-cell injection foot size” value ([3]; Day 4, group average n=4) was 97.3%. For the same compound, the “% of pre-cell injection foot size” value ([3]; Day 6, n=4) was 105.8%, the “% of pre-cell injection foot size” value ([3]; Day 7, n=4) was 102.8% and the “% of pre-cell injection foot size” value ([3]; Day 9, n=4) was 108.4%. The “% of pre-cell injection foot size” value ([3]; Day 11, n=4) was 107.6%, the “% of pre-cell injection foot size” value ([3]; Day 14, n=4) was 117.4% and the “reduction of DTH swelling as compared with the saline controls” value [1] was 52.5%.

Glucose-1-phosphate was tested, and the “Mean Clinical Score” value [2, 4] was 3.0, the “Mean Day Onset” value [2, 4] was 5.2 and the “Mean Length Disease” value [2, 4] was 3.8 days. The “No.with EAE/Total” value [2, 4] was 5/5, the “Disease Severity (%Control)” value ([2]; Table III) was 75.5% and the “inhibition of EAE (result in words)” value [2] was “little or no effect on disease progression”.
